Measurements taken from patent US20060052375A1, “Bis-alkylbenzylamines” (priority 2002, published 2006).

Experiments:
Type in all cases: cell-based
[1] = tested on: Escherichia coli ATCC 10536; assay: Minimum inhibiting concentration (MIC value) in microtitre plates; parameters: unit not given here; conditions: serial dilution 1:2, 48 hours at 37° C., <20% growth compared with growth control
Protocol: (§1) Determination of the Minimum Inhibiting Concentration (MIC Value) in Microtitre Plates Nutrient Medium: Casein/soybean flour peptone bouillon for the preparation of the precultures of the test bacteria and yeast. Examples of Test Organisms: Bacteria: Escherichia coli ATCC 10536 (=EC) Staphylococcus aureus ATCC 6538(=SA) Procedure: The test substances are predissolved in dimethyl sulfoxide (DMSO) and tested in a serial dilution of 1:2. Bacteria and yeast are cultured overnight in CASO bouillon. All test organism suspensions are adjusted to an organism count of 1-5×10^6 CFU/ml with 0.85% sodium chloride solution. The test substances are prepipetted into microtitre plates in an amount of 8 μl per well. The previously adjusted organism suspensions are diluted 1:100 in CASO bouillon and added to the test substances in an amount of 192 μl per well. The test batches are incubated for 48 hours at 37° C. After incubation, the growth is determined by reference to the turbidity of the test batches (optical density) at 620 nm in a microplate reader. The minimum inhibiting concentration (MIC value) is the concentration of substance at which an appreciable inhibition of the growth (<20% growth compared with the growth control) of the test organisms is ascertained. Three microtitre plates are used for each test organism and substance concentration.

[2] = tested on: Staphylococcus aureus ATCC 6538; assay: as above; parameters: unit not given here; conditions: serial dilution 1:2, 48 hours at 37° C., <20% growth compared with growth control
Protocol: as §1

[3] = tested on: Pseudomonas aeruginosa ATCC 15442; assay: MIC in agar incorporation test; conditions: GC purity 88%
Protocol: (§2) Determination of the Minimum Inhibiting Concentration of the Compound of Formula (3) in Respect of a Wider Spectrum of Organisms The compound of formula (3) (see Table 1; GC purity 88%; prepared in accordance with Example 1) is tested on the microorganisms indicated in Table 3. The test for determining the minimum inhibiting concentration is effected in an agar incorporation test.

[4] = tested on: Corynebacterium xerosis ATCC 373; assay: MIC in agar incorporation test; conditions: GC purity 88%
Protocol: as §2

[5] = tested on: Proteus vulgaris ATCC 6896; assay: MIC in agar incorporation test; conditions: GC purity 88%
Protocol: as §2

[6] = tested on: Klebsiella pneumoniae ATCC 4352; assay: MIC in agar incorporation test; conditions: GC purity 88%
Protocol: as §2

[7] = tested on: C. minutissimum ATCC 23348; assay: MIC in agar incorporation test; conditions: GC purity 88%
Protocol: as §2

[8] = tested on: Staphylococcus aureus ATCC 9144; assay: MIC in agar incorporation test; conditions: GC purity 88%
Protocol: as §2

[9] = tested on: Aspergillus niger ATCC 6275; assay: MIC in agar incorporation test; conditions: GC purity 88%
Protocol: as §2

[10] = tested on: Salmonella choleraesuis ATCC 9184; assay: MIC in agar incorporation test; conditions: GC purity 88%
Protocol: as §2

[11] = tested on: Escherichia coli ATCC 10536; assay: MIC in agar incorporation test; conditions: GC purity 88%
Protocol: as §2

[12] = tested on: Staphylococcus aureus ATCC 6538; assay: MIC in agar incorporation test; conditions: GC purity 88%
Protocol: as §2

[13] = tested on: Propionibacterium acnes ATCC 6919; assay: MIC in agar incorporation test; conditions: GC purity 88%
Protocol: as §2

[14] = tested on: Staphylococcus epidermidis ATCC 12228; assay: MIC in agar incorporation test; conditions: GC purity 88%
Protocol: as §2

[15] = tested on: Candida albicans ATCC 10231; assay: MIC in agar incorporation test; conditions: GC purity 88%
Protocol: as §2

[16] = tested on: Escherichia coli NCTC 8196; assay: MIC in agar incorporation test; conditions: GC purity 88%
Protocol: as §2

Structure (SMILES) | MIC value ATCC 10536 [1] | MIC value ATCC 6538 [2] | also measured
CCCNCc1ccc(-c2ccc(CNCCC)cc2)cc1 [Compound of formula 2] | 15 | 15 | 
CCCCCCCCNCc1ccc(-c2ccc(CNCCCCCCCC)cc2)cc1 [Compound of formula 3, octyl-(4′-octylaminomethyl-biphenyl-4-ylmethyl)-amine] | <3.75 | 7.5 | MIC [3]: >120; MIC [4]: 1.88; MIC [5]: >120; MIC [6]: 7.5; MIC [7]: 1.88; MIC [8]: 3.75; MIC [9]: >120; MIC [10]: 7.5; MIC [11]: 3.75; MIC [12]: 3.75; MIC [13]: 3.75; MIC [14]: 3.75; MIC [15]: >120; MIC [16]: 3.75
CCCCCCCCCCNCc1ccc(-c2ccc(CNCCCCCCCCCC)cc2)cc1 [Compound of formula 4] | 15 | 30 | 
CCCCCCCCCCCNCc1ccc(-c2ccc(CNCCCCCCCCCCC)cc2)cc1 [Compound of formula 5] | 30 | 30 | 
CCCCCCCCCCCCCNCc1ccc(-c2ccc(CNCCCCCCCCCCCCC)cc2)cc1 [Compound of formula 6] | 30 | 30 | 
CC(C)NCc1ccc(-c2ccc(CNC(C)C)cc2)cc1 [Compound of formula 7] | 30 | 15 | 
CCC(C)NCc1ccc(-c2ccc(CNC(C)CC)cc2)cc1 (centres unmarked) [Compound of formula 8] | 60 | 15 | 
CC(C)(C)NCc1ccc(-c2ccc(CNC(C)(C)C)cc2)cc1 [Compound of formula 9] | >120 | 60 | 
CCCC(C)NCc1ccc(-c2ccc(CNC(C)CCC)cc2)cc1 (centres unmarked) [Compound of formula 10] | 30 | 15 | 
CC(C)CCNCc1ccc(-c2ccc(CNCCC(C)C)cc2)cc1 [Compound of formula 11] | 30 | 30 | 
CC(C)CC(C)NCc1ccc(-c2ccc(CNC(C)CC(C)C)cc2)cc1 (centres unmarked) [Compound of formula 12] | 60 | 30 | 
CCCCC(CC)CNCc1ccc(-c2ccc(CNCC(CC)CCCC)cc2)cc1 (centres unmarked) [Compound of formula 13] | 7.5 | 7.5 | 
COCC(C)NCc1ccc(-c2ccc(CNC(C)COC)cc2)cc1 (centres unmarked) [Compound of formula 14] | >120 | 30 | 
c1ccc(CNCc2ccc(-c3ccc(CNCc4ccccc4)cc3)cc2)cc1 [Compound of formula 15] | 120 | 120 | 
c1cc(-c2ccc(CNC3CCCCC3)cc2)ccc1CNC1CCCCC1 [Compound of formula 16] | 120 | 60 | 
c1ccc(CCNCc2ccc(-c3ccc(CNCCc4ccccc4)cc3)cc2)cc1 [Compound of formula 17] | 15 | 15 | 
c1cc(-c2ccc(CN3CCOCC3)cc2)ccc1CN1CCOCC1 [Compound of formula 18] | >120 | >120 | 
CC(=O)N1CCN(Cc2ccc(-c3ccc(CN4CCN(C(C)=O)CC4)cc3)cc2)CC1 [Compound of formula 19] | >120 | >120 | 
c1coc(CNCc2ccc(-c3ccc(CNCc4ccco4)cc3)cc2)c1 [Compound of formula 20] | >120 | >120 | 
CCCCN(C)Cc1ccc(-c2ccc(CN(C)CCCC)cc2)cc1 [Compound of formula 21] | 120 | >120 | 
CCCCCCCCCCCCN(C)Cc1ccc(-c2ccc(CN(C)CCCCCCCCCCCC)cc2)cc1 [Compound of formula 22] | 15 | 15 | 
CCN(CC)Cc1ccc(-c2ccc(CN(CC)CC)cc2)cc1 [Compound of formula 23] | >120 | 15 | 
CCCN(CCC)Cc1ccc(-c2ccc(CN(CCC)CCC)cc2)cc1 [Compound of formula 24] | >120 | >120 | 
CCCCN(CCCC)Cc1ccc(-c2ccc(CN(CCCC)CCCC)cc2)cc1 [Compound of formula 25] | >120 | >120 | 
CCCCCN(CCCCC)Cc1ccc(-c2ccc(CN(CCCCC)CCCCC)cc2)cc1 [Compound of formula 26] | >120 | 30 | 
CCCCCCN(CCCCCC)Cc1ccc(-c2ccc(CN(CCCCCC)CCCCCC)cc2)cc1 [Compound of formula 27] | >120 | 15 | 
CCCCCCCCN(CCCCCCCC)Cc1ccc(-c2ccc(CN(CCCCCCCC)CCCCCCCC)cc2)cc1 [Compound of formula 28] | 15 | 7.5 | 
c1ccc(CN(Cc2ccccc2)Cc2ccc(-c3ccc(CN(Cc4ccccc4)Cc4ccccc4)cc3)cc2)cc1 [Compound of formula 29] | >120 | >120 | 
CN(CCO)Cc1ccc(-c2ccc(CN(C)CCO)cc2)cc1 [Compound of formula 30] | >120 | >120 | 
c1cc(-c2ccc(CN3CCCCCC3)cc2)ccc1CN1CCCCCC1 [Compound of formula 31] | 120 | 60 | 
